From the NIST ThermoML archive (doi:10.1021/je200637v)
± gives the expanded uncertainty stated by the source.

Assay: activity coefficient (dimensionless); of the first substance listed, at infinite dilution; xn = mol fraction of the nth substance listed
Conditions: Liquid, Chromatography, x1 = 0

Compound | activity coefficient (322.85 K) | activity coefficient (332.65 K) | activity coefficient (343.15 K)
CCCCCCCCCCCC [dodecane] + CCCCCCCCCC[N+](C)(C)C.O=S(=O)([N-]S(=O)(=O)C(F)(F)F)C(F)(F)F | 15.1 ± 0.7 | 14.8 ± 0.68 | 13.8 ± 0.63
C#CCCCCC [1-heptyne] + CCCC[N+](C)(CCCC)CCCC.O=S(=O)([N-]S(=O)(=O)C(F)(F)F)C(F)(F)F | 2.79 ± 0.13 | 2.89 ± 0.13 | 2.85 ± 0.13
Cc1ccccc1C [1,2-dimethylbenzene] + CCCCCCCC[N+](C)(C)C.O=S(=O)([N-]S(=O)(=O)C(F)(F)F)C(F)(F)F | 1.24 ± 0.04 | 1.26 ± 0.04 | 1.25 ± 0.04
CCCCCCCCC [nonane] + CCCCCCCC[N+](CCCCCCCC)(CCCCCCCC)CCCCCCCC.O=S(=O)([N-]S(=O)(=O)C(F)(F)F)C(F)(F)F | 2.19 ± 0.1 | 2.14 ± 0.1 | 2.09 ± 0.09
ClC(Cl)Cl [trichloromethane] + CCCCCCCC[N+](CCCCCCCC)(CCCCCCCC)CCCCCCCC.O=S(=O)([N-]S(=O)(=O)C(F)(F)F)C(F)(F)F | 0.34 ± 0.04 | 0.35 ± 0.04 | 0.36 ± 0.04
CC#N [acetonitrile] + CCCCCCCC[N+](CCCCCCCC)(CCCCCCCC)CCCCCCCC.O=S(=O)([N-]S(=O)(=O)C(F)(F)F)C(F)(F)F | 0.5 ± 0.03 | 0.49 ± 0.03 | 0.49 ± 0.03
CCCCCCCCCCC [undecane] + CCCCCCCC[N+](C)(C)C.O=S(=O)([N-]S(=O)(=O)C(F)(F)F)C(F)(F)F | 25.8 ± 1.2 | 23.7 ± 1.1 | 21.1 ± 0.98
CCCCCCCCC [nonane] + CCCCCCCCCC[N+](C)(C)C.O=S(=O)([N-]S(=O)(=O)C(F)(F)F)C(F)(F)F | 8.87 ± 0.41 | 8.63 ± 0.4 | 7.61 ± 0.35
C1CCCCCC1 [cycloheptane] + CCCCCCCCCC[N+](C)(C)C.O=S(=O)([N-]S(=O)(=O)C(F)(F)F)C(F)(F)F | 7.7 ± 0.35 | 10.8 ± 0.49 | 14.6 ± 0.67
CCOCC [diethyl ether] + CCCCCCCCCC[N+](C)(C)C.O=S(=O)([N-]S(=O)(=O)C(F)(F)F)C(F)(F)F | 1.23 ± 0.04 | 1.24 ± 0.04 | 1.21 ± 0.04
C[N+](=O)[O-] [nitromethane] + CCCCCCCC[N+](C)(C)C.O=S(=O)([N-]S(=O)(=O)C(F)(F)F)C(F)(F)F | 0.6 ± 0.03 | 0.58 ± 0.03 | 0.55 ± 0.03
ClCCl [dichloromethane] + CCCCCCCCCC[N+](C)(C)C.O=S(=O)([N-]S(=O)(=O)C(F)(F)F)C(F)(F)F | 0.51 ± 0.03 | 0.55 ± 0.03 | 0.56 ± 0.03
C1CCCCC1 [cyclohexane] + CCCCCCCCCC[N+](C)(C)C.O=S(=O)([N-]S(=O)(=O)C(F)(F)F)C(F)(F)F | 2.9 ± 0.13 | 2.96 ± 0.13 | 2.8 ± 0.13
CCCC(C)=O [pentan-2-one] + CCCC[N+](C)(CCCC)CCCC.O=S(=O)([N-]S(=O)(=O)C(F)(F)F)C(F)(F)F | 0.55 ± 0.03 | 0.58 ± 0.03 | 0.59 ± 0.03
CC1CCCCC1 [methylcyclohexane] + CCCC[N+](C)(CCCC)CCCC.O=S(=O)([N-]S(=O)(=O)C(F)(F)F)C(F)(F)F | 5.92 ± 0.27 | 5.91 ± 0.27 | 5.58 ± 0.26
C1COCCO1 [1,4-dioxane] + CCCCCCCCCC[N+](C)(C)C.O=S(=O)([N-]S(=O)(=O)C(F)(F)F)C(F)(F)F | 0.56 ± 0.03 | 0.57 ± 0.03 | 0.57 ± 0.03
CC(C)CC(C)(C)C [2,2,4-trimethylpentane] + CCCC[N+](C)(CCCC)CCCC.O=S(=O)([N-]S(=O)(=O)C(F)(F)F)C(F)(F)F | 8.87 ± 0.41 | 8.91 ± 0.41 | 8.42 ± 0.39
CCC(C)CC [3-methylpentane] + CCCCCCCC[N+](C)(C)C.O=S(=O)([N-]S(=O)(=O)C(F)(F)F)C(F)(F)F | 5.62 ± 0.26 | 5.24 ± 0.24 | 4.87 ± 0.22
C=CCCCC [hex-1-ene] + CCCCCCCCCC[N+](C)(C)C.O=S(=O)([N-]S(=O)(=O)C(F)(F)F)C(F)(F)F | 2.7 ± 0.12 | 2.86 ± 0.13 | 2.76 ± 0.13
CCC=O [propanal] + CCCC[N+](C)(CCCC)CCCC.O=S(=O)([N-]S(=O)(=O)C(F)(F)F)C(F)(F)F | 0.49 ± 0.03 | 0.49 ± 0.03 | 0.5 ± 0.03
CCCCO [butan-1-ol] + CCCCCCCCCC[N+](C)(C)C.O=S(=O)([N-]S(=O)(=O)C(F)(F)F)C(F)(F)F | 1.7 ± 0.07 | 1.55 ± 0.06 | 1.38 ± 0.05
CCC=O [propanal] + CCCCCCCC[N+](C)(C)C.O=S(=O)([N-]S(=O)(=O)C(F)(F)F)C(F)(F)F | 0.48 ± 0.03 | 0.47 ± 0.03 | 0.46 ± 0.03

Compound | activity coefficient (322.85 K) | activity coefficient (332.65 K) | activity coefficient (343.15 K)
CC(C)O [propan-2-ol] + CCCCCCCCCC[N+](C)(C)C.O=S(=O)([N-]S(=O)(=O)C(F)(F)F)C(F)(F)F | 1.38 ± 0.05 | 1.28 ± 0.04 | 1.15 ± 0.04
CC#N [acetonitrile] + CCCC[N+](C)(CCCC)CCCC.O=S(=O)([N-]S(=O)(=O)C(F)(F)F)C(F)(F)F | 0.49 ± 0.03 | 0.5 ± 0.03 | 0.48 ± 0.03
CCCCCCCCCCCC [dodecane] + CCCCCCCC[N+](CCCCCCCC)(CCCCCCCC)CCCCCCCC.O=S(=O)([N-]S(=O)(=O)C(F)(F)F)C(F)(F)F | – | – | 2.72 ± 0.12
CCC[N+](=O)[O-] [1-nitropropane] + CCCCCCCCCC[N+](C)(C)C.O=S(=O)([N-]S(=O)(=O)C(F)(F)F)C(F)(F)F | 0.59 ± 0.03 | 0.59 ± 0.03 | 0.57 ± 0.03
CCC(C)=O [butanone] + CCCCCCCC[N+](C)(C)C.O=S(=O)([N-]S(=O)(=O)C(F)(F)F)C(F)(F)F | 0.41 ± 0.03 | 0.38 ± 0.03 | 0.34 ± 0.04
CCO [ethanol] + CCCCCCCCCC[N+](C)(C)C.O=S(=O)([N-]S(=O)(=O)C(F)(F)F)C(F)(F)F | 1.29 ± 0.04 | 1.19 ± 0.04 | 1.07 ± 0.03
Cc1ccccc1C [1,2-dimethylbenzene] + CCCCCCCCCC[N+](C)(C)C.O=S(=O)([N-]S(=O)(=O)C(F)(F)F)C(F)(F)F | 1.03 ± 0.03 | 1.07 ± 0.03 | 1.07 ± 0.03
CCN(CC)CC [triethylamine] + CCCCCCCCCC[N+](C)(C)C.O=S(=O)([N-]S(=O)(=O)C(F)(F)F)C(F)(F)F | 2.17 ± 0.1 | 2.4 ± 0.11 | 2.31 ± 0.1
Cc1ccccc1 [toluene] + CCCC[N+](C)(CCCC)CCCC.O=S(=O)([N-]S(=O)(=O)C(F)(F)F)C(F)(F)F | 1.13 ± 0.03 | 1.19 ± 0.04 | 1.19 ± 0.04
CC1CCCC1 [methylcyclopentane] + CCCCCCCCCC[N+](C)(C)C.O=S(=O)([N-]S(=O)(=O)C(F)(F)F)C(F)(F)F | 2.99 ± 0.14 | 2.99 ± 0.14 | 2.83 ± 0.13
CCO [ethanol] + CCCCCCCC[N+](C)(C)C.O=S(=O)([N-]S(=O)(=O)C(F)(F)F)C(F)(F)F | 1.47 ± 0.06 | 1.32 ± 0.05 | 1.19 ± 0.04
ClC(Cl)(Cl)Cl [tetrachloromethane] + CCCCCCCCCC[N+](C)(C)C.O=S(=O)([N-]S(=O)(=O)C(F)(F)F)C(F)(F)F | 1.46 ± 0.06 | 1.5 ± 0.06 | 1.47 ± 0.06
c1ccsc1 [thiophene] + CCCCCCCCCC[N+](C)(C)C.O=S(=O)([N-]S(=O)(=O)C(F)(F)F)C(F)(F)F | 0.65 ± 0.03 | 0.7 ± 0.03 | 0.68 ± 0.03
C1CCCCCC1 [cycloheptane] + CCCCCCCC[N+](CCCCCCCC)(CCCCCCCC)CCCCCCCC.O=S(=O)([N-]S(=O)(=O)C(F)(F)F)C(F)(F)F | 2.21 ± 0.1 | 3.16 ± 0.14 | 4.37 ± 0.2
CCc1ccccc1 [ethylbenzene] + CCCC[N+](C)(CCCC)CCCC.O=S(=O)([N-]S(=O)(=O)C(F)(F)F)C(F)(F)F | 1.56 ± 0.06 | 1.64 ± 0.07 | 1.63 ± 0.07
C#CCCCC [1-hexyne] + CCCC[N+](C)(CCCC)CCCC.O=S(=O)([N-]S(=O)(=O)C(F)(F)F)C(F)(F)F | 2.12 ± 0.1 | 2.24 ± 0.1 | 2.2 ± 0.1
OCC(F)(F)F [2,2,2-trifluoroethanol] + CCCC[N+](C)(CCCC)CCCC.O=S(=O)([N-]S(=O)(=O)C(F)(F)F)C(F)(F)F | 0.5 ± 0.03 | 0.48 ± 0.03 | 0.45 ± 0.03
CCCCO [butan-1-ol] + CCCCCCCC[N+](C)(C)C.O=S(=O)([N-]S(=O)(=O)C(F)(F)F)C(F)(F)F | 2.01 ± 0.09 | 1.8 ± 0.08 | 1.59 ± 0.06
CCN(CC)CC [triethylamine] + CCCCCCCC[N+](CCCCCCCC)(CCCCCCCC)CCCCCCCC.O=S(=O)([N-]S(=O)(=O)C(F)(F)F)C(F)(F)F | 1.03 ± 0.03 | 1.05 ± 0.03 | 1.02 ± 0.03
Cc1ccc(C)cc1 [1,4-dimethylbenzene] + CCCCCCCC[N+](C)(C)C.O=S(=O)([N-]S(=O)(=O)C(F)(F)F)C(F)(F)F | 1.38 ± 0.05 | 1.39 ± 0.05 | 1.37 ± 0.05
CCC(C)=O [butanone] + CCCCCCCC[N+](CCCCCCCC)(CCCCCCCC)CCCCCCCC.O=S(=O)([N-]S(=O)(=O)C(F)(F)F)C(F)(F)F | 0.29 ± 0.04 | 0.28 ± 0.04 | 0.26 ± 0.04
CC1CCCC1 [methylcyclopentane] + CCCCCCCC[N+](C)(C)C.O=S(=O)([N-]S(=O)(=O)C(F)(F)F)C(F)(F)F | 4.18 ± 0.19 | 3.95 ± 0.18 | 3.67 ± 0.17
